Each structure is given as a SMILES string. Bounds are passed on as bounds.

For data set [1], the system named is HepG2. The data set can be described thus: Antiproliferative activity against human HepG2 cells by MTT assay. The class given is functional, cell-based.
The nature of data set [2]: Solubility of the compound in saline/PEG400 (95/5% V/V) at pH 7.4. Type of data set: physicochemical.
A short description of data set [3]: Stability of the compound at 4 to 60 degree C measured of 5 days by HPLC analysis. The class given is physicochemical. As to conditions: 120 h; time 5 day; call rule not given here.
Data set [4] can be described thus: Toxicity in BALB/c mouse xenografted with human HepG2 cells assessed as change in body weight at 15 to 45 mg/kg, po qd at 45 mg/kg, po treated daily for 21 days measured every 3 days for 21 days. The class given is organism-based. The following applies: in vivo, 504 h, dose 15-45 mg/kg, time 21 day. (In xenograft studies the graft and the host belong to different species.)

The nature of data set [5]: Cmax in ICR mouse at 45 mg/kg, po measured after 0.083 to 12 hrs by UPLC-MS/MS analysis. Type of data set: ADME, organism-based. More on the design: dose 45 mg/kg, time upper 12 hrs, time lower 0.083 hrs, route po. As to conditions: in vivo.
Data set [6] can be described thus: MRT (0 to t) in ICR mouse at 45 mg/kg, po measured after 0.083 to 12 hrs by UPLC-MS/MS analysis. The class given is ADME, organism-based. The following applies: in vivo, time 0.083-12 hrs.
Data set [7] in a line: Cmax in ICR mouse at 10 mg/kg, iv measured after 0.083 to 12 hrs by UPLC-MS/MS analysis. Type of data set: ADME, organism-based. More on the design: time 0.083-12 hrs, dose 10 mg/kg, route iv. As to conditions: in vivo.
Data set [8] in a line: AUC(0 to t) in ICR mouse at 10 mg/kg, iv measured after 0.083 to 12 hrs by UPLC-MS/MS analysis. Type of data set: ADME, organism-based. Also on record: time upper 12 hrs, dose 10 mg/kg, time lower 0.083 hrs, route iv. The following applies: in vivo.
Data set [9] is described as follows: Drug distribution in ICR mouse Spleen at 100 mg/kg, ip measured upto 0.5 hrs by UPLC-MS/MS analysis. Type of data set: ADME, organism-based. The following applies: in vivo.
Data set [10] in a line: Drug distribution in ICR mouse heart at 100 mg/kg, ip measured upto 0.5 hrs by UPLC-MS/MS analysis. The class given is ADME, organism-based. As to conditions: in vivo.
Data set [11] in a line: Drug distribution in ICR mouse lung at 100 mg/kg, ip measured upto 0.5 hrs by UPLC-MS/MS analysis. Type of data set: ADME, organism-based. The following applies: in vivo.
Data set [12] can be described thus: Drug elimination in ICR mouse heart at 100 mg/kg, ip measured for 1.5 hrs by UPLC-MS/MS analysis. The class given is ADME, organism-based. The following applies: in vivo.
Data set [13] in a line: Drug elimination in ICR mouse spleen at 100 mg/kg, ip measured for 1.5 hrs by UPLC-MS/MS analysis. As to conditions: in vivo. The class given is ADME, organism-based.
Data set [14] is described as follows: Drug elimination in ICR mouse lung at 100 mg/kg, ip measured for 1.5 hrs by UPLC-MS/MS analysis. The class given is ADME, organism-based. As to conditions: in vivo.
Data set [15] in a line: Toxicity in ICR mouse assessed as change in body weight at 100 mg/kg, ip qd measured for 14 days. As to conditions: in vivo, 336 h, time 14 day. Type of data set: organism-based.
Data set [16] can be described thus: Toxicity in ICR mouse assessed as mortality at 100 mg/kg, ip qd measured for 14 days. Type of data set: organism-based. As to conditions: in vivo, 336 h, time 14 day.
Data set [17] is described as follows: Hepatotoxicity in ICR mouse assessed as change in blood ALT level at 45 mg/kg, po by biochemical assay. Type of data set: toxicity, organism-based. The following applies: in vivo.
Data set [18] can be described thus: Renal toxicity in ICR mouse assessed as change in blood UREA level at 45 mg/kg, po by biochemical assay. The class given is organism-based. As to conditions: in vivo.
A short description of data set [19]: Renal toxicity in ICR mouse assessed as change in blood BUN level at 45 mg/kg, po by biochemical assay. The class given is organism-based. The following applies: in vivo.
A short description of data set [20]: Renal toxicity in ICR mouse assessed as change in blood CREA level at 45 mg/kg, po by biochemical assay. The class given is organism-based. As to conditions: in vivo.
Data set [21] in a line: Toxicity in ICR mouse assessed as effect on heart at 45 mg/kg, po measured after 2 weeks by H and E staining based analysis. The class given is organism-based. The following applies: in vivo, 336 h.
The nature of data set [22]: Toxicity in ICR mouse assessed as effect on kidney at 45 mg/kg, po measured after 2 weeks by H and E staining based analysis. As to conditions: in vivo, 336 h. The class given is organism-based.

On to `C[C@H]1CCC/C=C/[C@@H]2C[C@H](OC(=O)OCc3cccnc3)C[C@H]2[C@H](O)/C=C/C(=O)O1`, for which, in [1], the IC50 worked out at 100 nM. In addition, the solubility in [2] was under 1000 µg/mL. Moreover, in data set [3], the Stability entry is reported as “Stable”. In addition, the Activity entry in data set [4], in [15], in data set [16], in data set [17], in [18] and in [19] was “Non-Toxic” in each case. Moreover, the Activity result in data set [20], in [21] and in data set [22] was “Non-Toxic” throughout. In addition, the highest concentration (Cmax) is 20.3 ng/mL in data set [5] and 2060 ng/mL in [7]. The same molecule returned a mean residence time MRT last in data set [6] of 2.92 h. Also, the AUC(0-t) in data set [8] was found to be 519 ng·h/mL. Further, the Drug uptake entry in [9], in data set [10] and in data set [11] was “Active” throughout. Further, the Drug excretion entry in data set [12], in data set [13] and in data set [14] was “Active” throughout.

The IC50 is the concentration that gives 50% inhibition. Read a high IC50 as a need for much substance. By solubility is commonly meant the dissolved amount per volume that the medium holds. Lower therefore signals little dissolved substance. As usually defined, the Cmax is the peak of the concentration-time curve. As a reminder, the MRT last is a mean duration of stay, worked out from the concentration-time curve. By AUC(0-t) is commonly meant exposure summed from dosing to a finite time, without extrapolation to infinity. A high value points to more exposure.

The record behind these values is ChEMBL document CHEMBL5113532, “Design and Characterization of a Natural Arf-GEFs Inhibitor Prodrug CHNQD-01255 with Potent Anti-Hepatocellular Carcinoma Efficacy In Vivo” (J Med Chem, 2022).
